Assay results taken from paper PMC8640510 (Cell Death and Differentiation, 2021).

How the values were obtained:
HCoV-OC43 = HCoV-OC43 viral infectivity assay; assay type: cell-based; conditions: HCoV-OC43, HMC3 cells; combination with remdesivir; #79: 60 μM, #96: […] μM, #102: 25 μM
Method: HMC3 cells were seeded into black 96-well plates at 90% confluency. The next day, media was removed and replaced with complete media containing compounds/carrier 2 h prior to infection. After that, 5 μl of HCoV-OC43 virus was added to each well at an MOI of 0.005 for a final total volume of 100 μl/well. The plates were incubated at 33 °C. The viral suspension was removed after 12 h and drugs were added back to the cells to further incubate at 33 °C for 36 h. At 48 h post infection, cells were fixed with 4 % PFA in the media for 15 min. Residual PFA was quenched with a 50 mM NH4Cl and 100 mM NaCl solution. Cells were permeabilized and blocked in 5% FBS, 3% BSA, 0.05% Triton X-100 and 0.005% NaN3 in PBS for an hour. Anti-N antibody (Sigma 542-7D) was diluted in 4% FBS in PBS at 1:1000 dilution and was applied at 4 °C for 16 h. After several washing steps, cells were stained with AlexaFluor 594 and DAPI. For determination of cytotoxicity, HMC3 cells were seeded into opaque white wall 96-well plates. The following day, media was removed, replaced with media containing compounds/carrier and incubated for 48 h. After 48 h, cell viability was determined using alamarBlue™ Cell Viability Reagent using an Infinite 200 PRO microplate reader (Tecan).
Plates were scanned on a Citation 5 Imaging Multi-Mode Reader (BioTek). Gen5 software (version 3.10) was used for both image acquisition and analysis. A total number of 16 images/well were collected at 4x magnification to span the entire well. DAPI channel was used to build primary masks for the nucleus. Secondary masks were built within a 15 μm ring around the primary nuclear mask. Infection efficiencies were calculated from the ratio of the total fluorescence intensity within the secondary mask and the total area of the secondary mask for each well. Microscope images were prepared for publication using ImageJ (version 1.53i).

SARS-CoV-2 = SARS-CoV-2 viral infectivity assay; assay type: cell-based; conditions: A549+ACE2 cells; for direct antiviral effect on SARS-CoV-2 on their own: 72 h post infection, compound alone; for synergy with remdesivir, SARS-CoV-2: combination with remdesivir, #79: 60 μM, #96: […] μM, #102: 25 μM
[1] = clinical studies in Japan, gastric diseases; cited from earlier work

Row | Structure (SMILES) | lowering of the EC50 of remdesivir (HCoV-OC43) | direct antiviral effect on SARS-CoV-2 on their own (SARS-CoV-2) | synergy with remdesivir, SARS-CoV-2 (SARS-CoV-2) | tolerability in humans [1]
1 | O=C(NCc1ccc(F)cc1)C1C(=O)N(O)C(=O)c2cc(C(F)(F)F)ccc21 (stereo not shown) [#79, 7-trifluoromethyl-N-(4-fluorobenzyl)−2-hydroxy-1,3-dioxo-4H-isoquinoline-4-carboxamide] | ~ 5 fold | no direct antiviral effect was detected | synergized with remdesivir | –
2 | CC(C)=CCc1c(O)ccc(C(=O)/C=C/c2ccc(O)cc2)c1O [#96, Isobavachalcone] | ~ 5 fold | no direct antiviral effect was detected | synergized with remdesivir | –
3 | CC(C)=CCOc1ccc(/C=C/C(=O)c2ccc(OCC=C(C)C)cc2OCC(=O)O)cc1 [#102, Sofalcone, reference compound] | ~ 5 fold | no direct antiviral effect was detected | synergized with remdesivir | well tolerated by humans
